According to US20050234073A1, “Methods of inhibiting inflammation” (priority 2003, published 2005):

T1: MTP (Mus musculus, UniProt O08601)
T1 construct: Splenocyte lysates contained measurable triglyceride transfer activity; endogenous in cells; host or cells: primary mouse splenocytes (crude lysate)
T1 sequence (O08601 22-894): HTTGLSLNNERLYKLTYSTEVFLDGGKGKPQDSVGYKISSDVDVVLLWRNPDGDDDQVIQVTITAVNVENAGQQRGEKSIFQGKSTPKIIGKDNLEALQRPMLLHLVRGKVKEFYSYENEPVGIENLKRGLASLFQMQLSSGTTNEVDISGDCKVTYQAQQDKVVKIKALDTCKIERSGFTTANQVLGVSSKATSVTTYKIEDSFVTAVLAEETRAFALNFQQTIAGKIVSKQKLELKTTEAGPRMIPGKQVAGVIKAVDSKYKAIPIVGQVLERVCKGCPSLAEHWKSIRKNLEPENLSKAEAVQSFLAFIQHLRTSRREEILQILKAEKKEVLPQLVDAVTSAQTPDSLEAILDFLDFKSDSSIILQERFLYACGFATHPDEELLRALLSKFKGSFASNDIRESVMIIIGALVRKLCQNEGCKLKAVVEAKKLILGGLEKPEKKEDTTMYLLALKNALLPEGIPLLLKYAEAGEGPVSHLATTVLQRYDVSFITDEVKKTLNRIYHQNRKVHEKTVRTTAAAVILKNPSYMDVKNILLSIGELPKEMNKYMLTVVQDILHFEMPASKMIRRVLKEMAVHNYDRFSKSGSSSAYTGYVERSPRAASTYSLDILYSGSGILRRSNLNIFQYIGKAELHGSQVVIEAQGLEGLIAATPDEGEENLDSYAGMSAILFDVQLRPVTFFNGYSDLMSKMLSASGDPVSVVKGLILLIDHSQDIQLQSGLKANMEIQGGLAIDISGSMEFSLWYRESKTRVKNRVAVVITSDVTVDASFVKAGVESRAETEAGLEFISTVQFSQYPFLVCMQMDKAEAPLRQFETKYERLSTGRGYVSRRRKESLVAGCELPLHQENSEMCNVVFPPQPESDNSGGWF
T1 sequence (P09103 20-509 partner): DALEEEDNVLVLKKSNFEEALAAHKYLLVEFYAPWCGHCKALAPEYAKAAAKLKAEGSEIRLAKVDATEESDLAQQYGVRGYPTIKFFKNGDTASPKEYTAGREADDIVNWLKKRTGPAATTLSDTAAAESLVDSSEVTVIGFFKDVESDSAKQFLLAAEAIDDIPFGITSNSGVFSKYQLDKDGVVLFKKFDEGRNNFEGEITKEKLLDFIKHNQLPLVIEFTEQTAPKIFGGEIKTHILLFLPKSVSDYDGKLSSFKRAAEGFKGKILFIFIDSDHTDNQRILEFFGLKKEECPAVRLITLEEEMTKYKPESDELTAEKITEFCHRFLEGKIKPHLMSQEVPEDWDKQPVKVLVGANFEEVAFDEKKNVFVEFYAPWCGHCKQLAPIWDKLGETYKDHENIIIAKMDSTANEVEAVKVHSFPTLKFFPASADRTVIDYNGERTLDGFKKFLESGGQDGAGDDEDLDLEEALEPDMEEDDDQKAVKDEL

T2: recombinant murine CD1d (Mus musculus, UniProt P11609)
T2 construct: made in house; host or cells: baculovirus expression system (CD1d); rat liver (MTP)
T2 sequence (P11609 22-305 limits assumed): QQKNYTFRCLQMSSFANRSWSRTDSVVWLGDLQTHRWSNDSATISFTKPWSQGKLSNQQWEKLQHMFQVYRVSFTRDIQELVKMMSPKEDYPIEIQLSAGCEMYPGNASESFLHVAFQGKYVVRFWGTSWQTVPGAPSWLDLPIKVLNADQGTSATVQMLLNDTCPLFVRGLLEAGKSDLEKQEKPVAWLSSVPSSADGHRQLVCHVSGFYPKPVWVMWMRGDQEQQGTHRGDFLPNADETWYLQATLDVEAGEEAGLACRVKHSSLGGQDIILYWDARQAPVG
T2 sequence (P01887 21-119 partner): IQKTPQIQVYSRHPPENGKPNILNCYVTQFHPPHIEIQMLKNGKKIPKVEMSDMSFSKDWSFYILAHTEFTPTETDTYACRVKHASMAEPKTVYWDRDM

B1: MTP: microsomal triglyceride transfer protein purified from rat liver (>95% pure by SDS-PAGE) (protein)
chain 1: HTTGLSLNNERLYKLTYSTEVFLDGGKGKPQDSVGYKISSDVDVVLLWRNPDGDDDQVIQVTITAVNVENAGQQRGEKSIFQGKSTPKIIGKDNLEALQRPMLLHLVRGKVKEFYSYENEPVGIENLKRGLASLFQMQLSSGTTNEVDISGDCKVTYQAQQDKVVKIKALDTCKIERSGFTTANQVLGVSSKATSVTTYKIEDSFVTAVLAEETRAFALNFQQTIAGKIVSKQKLELKTTEAGPRMIPGKQVAGVIKAVDSKYKAIPIVGQVLERVCKGCPSLAEHWKSIRKNLEPENLSKAEAVQSFLAFIQHLRTSRREEILQILKAEKKEVLPQLVDAVTSAQTPDSLEAILDFLDFKSDSSIILQERFLYACGFATHPDEELLRALLSKFKGSFASNDIRESVMIIIGALVRKLCQNEGCKLKAVVEAKKLILGGLEKPEKKEDTTMYLLALKNALLPEGIPLLLKYAEAGEGPVSHLATTVLQRYDVSFITDEVKKTLNRIYHQNRKVHEKTVRTTAAAVILKNPSYMDVKNILLSIGELPKEMNKYMLTVVQDILHFEMPASKMIRRVLKEMAVHNYDRFSKSGSSSAYTGYVERSPRAASTYSLDILYSGSGILRRSNLNIFQYIKGTELHGSQVVIEAQGLEGLIAATPDEGEENLDSYAGMSAILFDVQLRPVTFFNGYSDLMSKMLSASGDPVSVVKGLILLIDHSQDIQLQSGLKANMEIQGGLAIDISGSMEFSLWYRESKTRVKNRVAVVITSDVTVDASFVKAGLESRAETEAGLEFISTVQFSQYPFLVCMQMDKAEAPLRQFETKYERLSTGRGYVSRRRKESLVAGCELPLHQQNSEMCNVVFPPQPESDNSGGWF
chain 2: DALEEEDNVLVLKKSNFEEALAAHKYLLVEFYAPWCGHCKALAPEYAKAAAKLKAEGSEIRLAKVDATEESDLAQQYGVRGYPTIKFFKNGDTASPKEYTAGREADDIVNWLKKRTGPAATTLSDTAAAESLVDSSEVTVIGFFKDVESDSAKQFLLAAEAIDDIPFGITSNSGVFSKYQLDKDGVVLFKKFDEGRNNFEGEITKEKLLDFIKHNQLPLVIEFTEQTAPKIFGGEIKTHILLFLPKSVSDYDGKLSSFKRAAEGFKGKILFIFIDSDHTDNQRILEFFGLKKEECPAVRLITLEEEMTKYKPESDELTAEKITEFCHRFLEGKIKPHLMSQEVPEDWDKQPVKVLVGANFEEVAFDEKKNVFVEFYAPWCGHCKQLAPIWDKLGETYKDHENIIIAKMDSTANEVEAVKVHSFPTLKFFPASADRTVIDYNGERTLDGFKKFLESGGQDGAGDDEDLDLEEALEPDMEEDDDQKAVKDEL

How the values were obtained:
MTP = target: T1, MTP; experiment: Triglyceride transfer assay in splenocyte lysates; format: biochemical; details: splenocyte lysate with inhibitor added
Procedure: FIG. 15C is a line graph showing triglyceride transfer activity in 100 ug splenocyte lysate (Δ), 50 μg splenocyte lysate (◯), 100 μg splenocyte lysate with BMS197636 (▴), and 50 μg splenocyte lysate with BMS197636 (●). Assays were in triplicate with standard deviations less than 10% of percent transfer at 3 hours.
The triglyceride transfer activity of MTP was measured using donor phospholipids vesicles (Chylos Inc.) as described. PE transfer was done by overnight coating of a microtiter plate with 2 ug per well recombinant murine CD1d purified by baculovirus expression system. Wells were washed with PBS, incubated with PBS containing 0.5% isopropanol for 2 hours at 37° C., and washed again with PBS. […] Fluorescence was read with a fluorescence plate reader (7620 Microplate Fluorimeter; Cambridge Technology, Watertown, Mass.) using 460 nm excitation and 530 nm emission wavelengths.
In this assay, MTP function is assessed by studying the transfer of fluorescently labeled triglycerides embedded in donor phospholipid vesicles to acceptor vesicles. During the transfer, the amount of triglyceride associated with MTP can be measured as an increase in fluorescence over time. […]

C1Rd cells = experiment: C1Rd cell CD1d-mediated activation of human peripheral blood derived iNKT cell line with PMA (IFN-gamma); format: cell-based; details: limiting concentration of PMA
Procedure: FIG. 20E is a line chart showing IFN-gamma production in C1Rd cells cultured with BMS197636 or vehicle and incubated with NKT cell lines derived from human peripheral blood in the presence of 1 ng/mL PMA.
APCs were incubated with 100 ng/mL α-galcer (kindly provided by Dr. H. Ploegh) for 3 hours, washed three times in PBS and aliquoted into a 96 well plate at 10^6 cells/mL. DN32 cells were added at 1:1 E:T ratio unless otherwise indicated. CD4^+ cells were isolated from spleens of OT-II transgenic mice using positive selection on CD4 magnetic beads (Miltenyi Biotec) and incubated with APCs and 100 μg/mL ovalbumin. The 24.8 NKT cell line was incubated with APCs in the absence of added antigen at E:T=2:1 unless otherwise indicated. Mouse IL-2 production was assessed by ELISA (OptEIA, BD PharMingen) of 24 or 40 hour culture supernatants. APCs were treated with BMS212122 (10 uM dissolved in DMSO; kindly provided by Bristol Myers Squibb, New Jersey) as indicated and washed prior to addition of T or NKT cells. […]
C1Rd is a human B cell line transfected with human CD1d. […] Incubation of C1Rd cells with BMS212122, but not the vehicle, inhibited the presentation of α-galcer as determined by a reduction in IL-2 secretion (FIG. 20D).

recombinant murine CD1d = target: T2, recombinant murine CD1d; experiment: PE transfer assay from MTP to recombinant CD1d; format: biochemical; details: 0.5 μg purified MTP, PE:NBD vesicles, 2 hours 37 degrees
Procedure: FIG. 16A is a bar chart showing purified MTP transfers a lipid to recombinant CD1d in vitro. Two micrograms of BSA or recombinant CD1d were coated onto microtiter wells and incubated with either PE:NBD vesicles alone or PE:NBD vesicles plus 0.5 μg purified MTP. Results are representative of five independent experiments. *, p<0.005
The triglyceride transfer activity of MTP was measured using donor phospholipids vesicles (Chylos Inc.) as described. PE transfer was done by overnight coating of a microtiter plate with 2 ug per well recombinant murine CD1d purified by baculovirus expression system. […] Fluorescence was read with a fluorescence plate reader (7620 Microplate Fluorimeter; Cambridge Technology, Watertown, Mass.) using 460 nm excitation and 530 nm emission wavelengths.
Recombinant β2m associated CD1d was coated onto a 96 well plate and incubated with liposomes containing a 6:1 ratio of unlabeled PE:NBD-labeled PE. […] Lipids bound to CD1d were eluted with isopropanol, transferred to a black microtiter plate, and the level of fluorescence determined. […] Assuming equal efficiency of MTP-mediated transfer of labeled versus unlabeled PE to the CD1d pocket and that all CD1d molecules bound to the plastic in an orientation with the groove solvent accessible, we calculated that the maximum limit of NBD-labeled PE that could be transferred to CD1d was 4.7 picomoles in this assay. […]

Molecule | triglyceride transfer activity of splenocyte lysates (MTP) | CD1d-mediated activation of human peripheral blood derived iNKT cell line (C1Rd cells) | increase in fluorescence above background (PE transferred to CD1d) (recombinant murine CD1d) [fold]
9-[4-[[[4′-(trifluoromethyl)[1,1′-biphenyl]-2-yl]carbonyl]amino]butyl-piperidin-4-yl]-N-(2,2,2-trifluoroethyl)-9H-fluorene-9-carboxamide [BMS197636] | abrogated | dose-dependent inhibition | –
B1 | – | – | 5
